Reference: publication PMC4158172 (European Journal of Clinical Pharmacology, 2014)
Several values for one entry are separate records, joined by “and”; a condition that tells them apart may be missing. Equal values may be shown once.

Legend:
[1] = test system: CYP isozymes; parameters: method as in PMID 23132334; details: in vitro; cited from earlier work
[2] = test system: OATP1B1; details: cited from earlier work
[3] = cited from earlier work
[4] = test system: BCRP; parameters: method as in PMID 23132334; details: in vitro; cited from earlier work
[5] = test system: CYP3A4; details: cited from earlier work
[6] = test system: OATP1B3; parameters: method as in PMID 23132334; details: in vitro; cited from earlier work
[7] = parameters: method as in earlier work; details: SAILING, DTG 50 mg once daily with EFV- or TPV/r-containing background regimens, n=16; cited from earlier work
[8] = test system: UGT2B7; parameters: method as in PMID 23132334; details: in vitro; cited from earlier work
[9] = test system: CYP1A2; parameters: method as in PMID 23132334; details: in vitro; cited from earlier work
[10] = parameters: method as in PMID 19884365; details: healthy subjects; cited from earlier work
[11] = DTG steady-state plasma pharmacokinetics, interaction with TPV/r
Procedure: Two studies were conducted in healthy volunteer subjects as judged by physical exam, medical history and laboratory testing. These studies are registered with ClinicalTrials.gov (NCT01068925; protocol number ING113096 and NCT01098526; protocol number ING114005). Adult men and women of non-childbearing potential were enrolled. Subjects were excluded if they tested positive for HIV or hepatitis C antibodies or hepatitis B surface antigen. Subjects were not allowed to receive any prescription or non-prescription drugs, including vitamins or herbal products, within 7 days of dosing and throughout the study.
This was a phase I, open-label, single-sequence, three-period, steady-state study. Eighteen subjects received DTG 50 mg q24h for 5 days (period 1). […] There was no washout between treatment periods. All doses were administered with a moderate-fat meal.
Dolutegravir and EFV were measured in plasma samples using validated methods, which consisted of extraction from plasma by protein precipitation with acetonitrile containing [^15N^2H7]dolutegravir or [^2H4]-efavirenz as the internal standards, respectively. The plasma extracts were injected onto a 2.1 × 50 mm 3.5-micron XBridge™ C18 column (Waters Associates, Milford, MA, USA). Dolutegravir was eluted with a mobile phase consisting of 40 % acetonitrile in aqueous 0.1 % formic acid, and EFV was eluted with a mobile phase consisting of acetonitrile/0.1 % formic acid (65 % v/v) in a 5-mM ammonium acetate buffer containing 0.1 % acetic acid (35 % v/v). The eluates were detected by using a Sciex API 4000™ (AB Sciex, Framingham, MA, USA) equipped with a TurboIonSpray® ionisation source with multiple reaction monitoring (DTG positive ion mode m/z 420 > 277; internal standard m/z 428 > 277; EFV negative ion mode m/z 314 > 243; internal standard m/z 318 > 247). Data acquisition and processing were performed with Analyst 1.4.2 software (AB Sciex), and linear regression analysis calculations were performed using the Study Management System, SMS™ 2000 v.2.2 (GlaxoSmithKline, Research Triangle Park, NC, USA). The calibration range for DTG was 0.020 to 20 μg/mL and for EFV was 0.10 to 20 μg/mL. Quality control samples prepared separately at three concentrations were stored with study samples and analysed with each batch of samples against separately prepared calibration standards.
A non-compartmental PK analysis of the concentration-time data was performed with WinNonlin (version 5.2, Pharsight Corporation, Mountain View, CA, USA). Plasma PK parameters for both DTG and EFV were calculated using actual recorded times for each treatment. Parameters that were determined included AUC from time zero to the end of the dosage interval (AUC(0–τ)), maximum observed plasma concentration (C max), the time of maximum observed plasma concentration (T max) and plasma concentration at the end of the dosing interval (C τ).
Statistical analyses were performed on the log-transformed PK parameters: AUC(0–τ), C τ and C max. […] Efavirenz PK data were compared with historical data. Subject was fitted as a random effect and treatment was fitted as a fixed effect in the model. The ratio of geometric least-squares means and associated 90 % confidence intervals were estimated for the PK parameters of interest.

[12] = DTG steady-state plasma pharmacokinetics, interaction with EFV; assay type: in vivo, human; details: for Cmax / AUC / concentration at 24 h / Tmax: both sexes, human, oral, fasting; for AUC: read-out: AUC(0–τ); for concentration at 24 h: read-out: C τ; for Tmax: n=12, median (range)
Procedure: There was no washout between treatment periods. All doses were administered in the fasting state. […]

[13] = parameters: method as in PMID 23075918; details: DTG 50 mg twice daily with rifampin; cited from earlier work
[14] = test system: MRP2; parameters: method as in PMID 23132334; details: in vitro; cited from earlier work
[15] = test system: CYP2B6; parameters: method as in PMID 23132334; details: in vitro; cited from earlier work
[16] = test system: CYP3A4; details: in vivo; cited from earlier work
[17] = both, human, plasma, oral, 50 mg
[18] = co-administration with TPV/r 500/200 mg q12h
[19] = plasma, DTG 50 mg + EFV 600 mg q24h for 14 days, n=12, geometric mean (CV%)
[20] = plasma, DTG 50 mg q24h alone for 5 days, n=12, geometric mean (CV%)
[21] = co-administration of EFV 600 mg q24h and DTG 50 mg q24h

C[C@@H]1CCO[C@H]2Cn3cc(C(=O)NCc4ccc(F)cc4F)c(=O)c(O)c3C(=O)N12 [DTG, Dolutegravir]
direct inhibition of CYP isozymes [1]: minimal or no direct inhibition
direct inhibition of OATP1B1 [2]: minimal or no direct inhibition
C0 ([3]; DTG 50 mg once daily without inducers, phase III studies in INI-naive populations): approximately 1.2 μg/mL
C0 (equivalent to C τ), geometric mean ([3]; VIKING-3, DTG 50 mg twice daily with EFV and TPV/r in background regimens, n=18, CV 63 %): 1620 ng/mL
C0 higher than with DTG 50 mg once daily without inducers ([3]; VIKING-3, DTG 50 mg twice daily with EFV and TPV/r in background regimens, n=18): 35%
direct inhibition of BCRP [4]: minimal or no direct inhibition
induction of CYP3A4 [5]: not an inducer
direct inhibition of OATP1B3 [6]: minimal or no direct inhibition
lower average DTG pre-dose (C 0) concentration [7]: 78%
pre-dose (C 0) concentration, geometric mean [7]: 186 ng/mL
direct inhibition of UGT2B7 [8]: minimal or no direct inhibition
induction of CYP1A2 [9]: not an inducer
effect on midazolam exposure [10]: no significant effect
GLS mean ratio (90 % CI) of AUC(0–τ) ([11]; DTG+TPV/r vs DTG alone, n=14): 0.409 (0.379, 0.443)
GLS mean ratio (90 % CI) of C max ([11]; DTG+TPV/r vs DTG alone, n=14): 0.535 (0.500, 0.572)
GLS mean ratio (90 % CI) of C τ ([11]; DTG+TPV/r vs DTG alone, n=14): 0.239 (0.212, 0.270)
Tmax ([11]; both, human, in vivo, 50 mg): 3 h
AUC [11, 17]: 64500 ng·h/mL
Cmax [11, 17]: 4530 ng/mL
concentration at 24 h [11, 17]: 1480 ng/mL
decrease in plasma DTG AUC(0–τ) [11, 18]: 59%
decrease in plasma DTG C max [11, 18]: 46%
decrease in plasma DTG C τ [11, 18]: 76% and 75%
GLS mean ratio (90 % CI) of AUC(0–τ) ([12]; DTG+EFV vs DTG alone, n=12): 0.431 (0.346, 0.536)
GLS mean ratio (90 % CI) of C max ([12]; DTG+EFV vs DTG alone, n=12): 0.608 (0.506, 0.730)
GLS mean ratio (90 % CI) of C τ ([12]; DTG+EFV vs DTG alone, n=12): 0.245 (0.179, 0.336)
Cmax ([12]; DTG 50 mg q24h alone for 5 days, healthy subjects n=12, plasma, geometric mean (CV%)): 3080 ng/mL
Cmax [12, 19]: 1870 ng/mL
AUC [12, 19]: 18200 ng·h/mL
concentration at 24 h [12, 19]: 220 ng/mL
Tmax ([12]; plasma, DTG 50 mg + EFV 600 mg q24h for 14 days): 1 h
AUC [12, 20]: 42300 ng·h/mL
concentration at 24 h [12, 20]: 910 ng/mL
Tmax ([12]; plasma, DTG 50 mg q24h alone for 5 days): 2 h
decrease in plasma DTG AUC(0–τ) [12, 21]: 57%
decrease in plasma DTG C max [12, 21]: 39%
decrease in plasma DTG C τ [12, 21]: 75%
C τ higher than with DTG 50 mg once daily alone [13]: 22%
direct inhibition of MRP2 [14]: minimal or no direct inhibition
induction of CYP2B6 [15]: not an inducer
component of metabolism via CYP3A4 [16]: ~10%
